Key:
[1] = system: western flower thrips (Frankliniella occidentalis); test: Test Example 2: western flower thrips damage on treated cucumber leaf; type: in vivo; conditions: 500 ppm, 20 ml/cup on cucumber, cut first foliage leaf, 30 larvae, after seven days
Experimental: A preparation prepared from each of the compound (1) of the present invention and a comparative compound (A) according to Formulation Example 5 was diluted with water so that the concentration of the compound of the present invention became 500 ppm to obtain a test scattering solution. On the other hand, soil was filled into polyethylene cups, cucumber was planted in each cup, and grown until its first foliage leaves developed. The aforementioned test scattering solution was scattered on the cucumber at a ratio of 20 ml/cup, and the scattered solution on the surface of the leaf was dried. The first foliage leaf was cut off, placed on a filter (diameter 70 mm) impregnated with water in a polyethylene cup (diameter 110 mm), 30 larvae of western flower thrips (Frankliniella occidentalis) were released thereon, and the polyethylene cup was closed with a lid. After seven days, a damage degree of the cucumber leaf by western flower thrips (Frankliniella occidentalis) was examined.

[2] = system: silverleaf whitefly (Bemisia argentifolii); test: Test Example 3: silverleaf whitefly on cabbage (foliar scattering); type: in vivo; conditions: 168 h, 20 ml/cup on cabbage 8 days after egg laying, seven days after scattering, read-out: insecticidal rate
Experimental: A preparation prepared from each of the compounds (1), (2), (5), (6), (8), (9), (16), (77) and (78) of the present invention and the comparative compound (A) according to Formulation Example 5 was diluted with water so that the concentration of the compound of the present invention became 500 ppm to obtain a test scattering solution.
On the other hand, soil was filled in polyethylene cups, cabbage was planted in each cup, and grown until its first foliage leaves developed, and leaves other than a first foliage leaves were removed. About 200 imagoes of silverleaf whitefly (Bemisia argentifolii) were released on this cabbage for about 24 hours, and had them lay eggs on the cabbage first foliage leaf.
The thus obtained cabbage on which about 80 to 100 eggs of silverleaf whitefly (Bemisia argentifolii) were laid was allowed to stand in a greenhouse for 8 days, and the aforementioned test scattering solution was scattered at a ratio of 20 ml/cup. Seven days after scattering, the number of alive insects was examined, and an insecticidal rate was calculated.

melting point [°C]	Compound	damage area rate by western flower thrips in the treated leaf [1] [%]	pest or weed control at 500 ppm [2] [%]
–	C#CCOc1nnc(-c2ccccc2)s1 [comparative compound (A), reference compound]	≥ 20	≤ 30
66.9	C#CCOc1nsc(-c2ccccc2)n1 [compound (1), 5-phenyl-3-propargyloxy-1,2,4-thiadiazole]	≤ 5	≥ 90
70.3	CC#CCOc1nsc(-c2ccccc2)n1 [compound (2), 5-phenyl-3-(2-butynyloxy)-1,2,4-thiadiazole]	–	≥ 90
–	CC#CCOc1nsc(-c2ccccc2F)n1 [compound (5), 5-(2-fluorophenyl)-3-(2-butynyloxy)-1,2,4-thiadiazole]	–	≥ 90
68.7	CC#CCOc1nsc(-c2cccc(F)c2)n1 [compound (6), 5-(3-fluorophenyl)-3-(2-butynyloxy)-1,2,4-thiadiazole]	–	≥ 90
–	CC#CCOc1nsc(-c2ccccc2Cl)n1 [compound (8), 5-(2-chlorophenyl)-3-(2-butynyloxy)-1,2,4-thiadiazole]	–	≥ 90
–	CC#CCOc1nsc(-c2cccc(Cl)c2)n1 [compound (9), 5-(3-chlorophenyl)-3-(2-butynyloxy)-1,2,4-thiadiazole]	–	≥ 90
–	CC#CCOc1nsc(-c2cccc(F)c2F)n1 [compound (16), 5-(2,3-difluorophenyl)-3-(2-butynyloxy)-1,2,4-thiadiazole]	–	≥ 90
–	CCC#CCOc1nsc(-c2ccccc2Cl)n1 [compound (77), 5-(2-chlorophenyl)-3-(2-pentynyloxy)-1,2,4-thiadiazole]	–	≥ 90
–	CCC#CCOc1nsc(-c2cccc(Cl)c2)n1 [compound (78), 5-(3-chlorophenyl)-3-(2-pentynyloxy)-1,2,4-thiadiazole]	–	≥ 90
